Reference: US20210338684A1, “DIAGNOSTIC AND THERAPEUTIC METHODS FOR CANCER” (Genentech, Inc., priority 2016, published 2021)
Entries after “also recorded” stand apart in the source; their conditions may differ. Each block holds one molecule with its values, some of them ahead of it.

Tests used:
[1] = system: SMARCA4-mutant cancer cell lines; assay: Clonogenic assay (colony formation)
[2] = system: ARID1A-mutant cancer cell lines; assay: Clonogenic assay (colony formation); type: cell-based, human
Experimental: (§1) 1,800-5,000 cells were plated in each 6-well plate, according to the doubling time. 24 hours after plating, the medium was removed and replaced with medium containing EPZ-6438 at different concentrations. Fresh medium with EPZ-6438 was replaced every 3 to 4 days until control cells reached confluence to stop culture. For studies evaluating the effect of EZH2 knockout, cells were plated 7 days following puromycin selection. The medium was removed, and cells were washed with PBS and stained with 0.5% crystal violet for 20 minutes at room temperature. Dye was removed, cell monolayers were washed with water, and the plate was washed and photographed.

ARID1A-mutant cell lines = assay: 3D Matrigel culture, acini formation; type: cell-based, human
Experimental: Wells of a 24 well plated were coated with 70 μl Matrigel Matrix (Corning) and allowed to congeal at room temperature. Cells (n=5,000) were plated on top of the basement matrix in 400 μl RPMI+10% FBS containing 2% Matrigel matrix. Cells were treated with the respective compounds in 400 μl media to replenish the old media. Colonies were imaged on a Zeiss Axio Observer A1 microscope 10 days after the start of experiment.

SMARCA2 = SMARCA2 expression (Taqman quantitative RT-PCR, Western blot); details: for induction of SMARCA2 transcript and protein: 6 or 10 days
[3] = system: SMARCA4-mutant cell lines; assay: Caspase 3/7 apoptosis assay; type: cell-based, human; details: several other models, prolonged exposure
Experimental: (§2) Apoptosis was monitored through (a) live cell imaging analysis using the Incucyte Caspase-3/7 Apoptosis Assay (Essen Biosciences, Cat. No. 4440) or through a static time point assessment using the Caspase-Glo 3/7 Assay (Promega, G8090). For Incucyte-based assays (FIG. 4B), 300-600 cells (based on doubling time) were plated in 96-well plates, and at 24 hours, media was replaced with EPZ-6438-containing media at the indicated concentrations and Caspase 3/7 reagent (Essen Bioscience). Fresh media containing EPZ-6438 and Caspase 3/7 reagent was replaced every 3 to 4 days. Phase contrast and fluorescent images were collected every 3 hours, and the number of fluorescent objects were counted and analyzed according to the Incucyte protocol. Data are presented as Caspase 3/7 fluorescent counts normalized to DMSO control at the indicated time points. For determination of apoptosis by Caspase-Glo (FIG. 18C, 19G), TO[…] cells were plated at 500 cells per well in a 96 well plate and treated with the indicated concentrations of EPZ-6438 for 6 days. Caspase 3/7 activity was measured according to the manufacturer's instructions, and results were normalized to signal in DMSO control wells, when indicated. To evaluate senescence induction, cells were stained for β-galactosidase activity using the Senescence Cells Histochemical Staining Kit (Sigma), according to the manufacturers instructions.

TOV-112D cells = assay: Caspase 3/7 apoptosis assay; type: cell-based, human
Experimental: as §2

NCI-H522 xenografts = assay: Xenograft study, tumor growth; type: in vivo, mouse; details: oral
Experimental: (§3) TOV-21G and NCI-H522 cells (American Type Culture Collection, Manassas, Va.) were cultured in vitro and harvested in HBSS:Matrigel (BD Biosciences; Franklin Lakes, N.J.) (1:1, v:v) for subcutaneous inoculation into female mice. TOV-21G cells were inoculated into Fox Chase SCIO® Beige mice (Charles River Laboratories, San Diego, Calif.). NCI-H522 cells were inoculated into BALB/c Nude mice (Vital River Laboratories, Beijing, China). Mice bearing established tumors were separated into groups of equally sized tumors (n=5, minimum) to receive escalating doses of EPZ-6438. EPZ-6438 was formulated once weekly in 0.5% sodium carboxymethylcellulose and 0.1% tween-80 at concentrations needed for target doses in a volume of 0.2 ml. All formulations were stored at 4° C., brought to room temperature, and mixed by vortex before oral administration by gavage twice daily from Day 1 until the end of the study. Tumor volumes were calculated from perpendicular length and width caliper measurements using the formula:
(§4) Tumor Volume (mm^3)=0.5×(Length×Width^2).
(§5) A mixed modeling approach was used to analyze the repeated measurement of tumor volumes from the same animals over time. Cubic regression splines were used to fit a nonlinear profile to the time courses of log 2-transformed tumor volumes in each group. Fitting was done via a linear mixed-effects model, using the package “nlme” (version 3.1-97) in R version 2.13.0 (R Development Core Team 2008; R Foundation for Statistical Computing; Vienna, Austria). Fitted tumor volumes were plotted in the natural scale in Prism (version 5.0b for Mac) (GraphPad Software; La Jolla, Calif.).

TOV-21G tumor xenografts = assay: Xenograft study, tumor growth; type: in vivo, mouse; details: SCID mice, 450 mg/kg BID, 28 days
Experimental: as §3, §4, §5

[4] = system: SMARCB1-mutant malignant rhabdoid tumor lines; assay: Clonogenic assay (colony formation); type: cell-based, human; details: two SMARCB1-mutant malignant rhabdoid tumor lines
Experimental: as §1

SWI/SNF wild-type models = assay: Clonogenic assay (colony formation); type: cell-based, human; details: panel (n=8) of cell lines wildtype for SWI/SNF complex genes
Experimental: as §1

[5] = system: mono-, di-, and tri-methylated H3K27; assay: Western blot of H3K27 methylation in cells
cathepsin B (CTSB) = assay: CTSB transcript and protein expression; type: cell-based, human; details: TOV-112D control cells, 5 μM
[6] = system: SMARCA4-mutant cell lines; assay: Cell morphology after prolonged treatment; type: cell-based, human; details: EPZ-6438-sensitive models, 21 days of treatment, 5 μM
[7] = system: H3K27me3 at the SMARCA2 promoter; assay: H3K27me3 ChIP-PCR; type: cell-based, human; details: TOV-112D cells
Experimental: For each sample, 10×10^6 cells were harvested and washed with 1×PBS. Cells were fixed and sheared following the instructions provided with the truChlP Chromatin Shearing Reagent Kit (Covaris). Cells were fixed for 5 minutes with 1% formaldehyde and then quenched with quenching buffer for 5 minutes. Cells were then washed with cold 2×PBS. Nuclei were isolated and sheared using the Covaris AFA Focused-ultrasonicator for 20 minutes. The IP was conducted with 500 μg sheared chromatin and 10 μg anti-H3K27me3 (Active Motif cat #39155) or anti-Rabbit IgG. The Magna ChIP kit (Millipore) was used for IP. For each IP, a 50 μl mixture of Dynabeads protein A and G (50/50 mix) was incubated with primary antibody for 3 hours. The beads were added to 500 μg of sheared chromatin. The beads and antibodies were incubated overnight at 4° C. The beads were then washed with the following wash buffers: low salt, high salt, LiCI wash buffer, and TE Buffer. DNA was extracted from the beads in ChIP elution buffer with protease K at 64° C. with shaking overnight. DNA was then purified using the QIAquick PCR Purification Kit (Qiagen). DNA was eluted with 30 μl of water. 1.0 μl of eluted DNA was used for each SYBR green PCR reaction. SMARCA2 was amplified using the following primers: forward, […] (SEQ ID NO: 27); reverse, […] (SEQ ID NO: 28). […]

[8] = biological target: SMARCA4-mutant EPZ-6438-sensitive models; assay: Senescence β-galactosidase staining; type: cell-based, human
Experimental: as §2

[9] = system: H3K27me3 in TOV-21G tumor xenograft tissue; assay: Pharmacodynamic Western blot of xenograft tumor tissue; type: in vivo, mouse; details: day 7, three hours following twice-daily oral administration
Experimental: (§6) Plasma and tumor samples for pharmacodynamic analysis were collected from tumor-bearing mice on day 7, 3 hours following the last dose. Tumor tissue was lysed in RIPA buffer containing 1M NaCl and homogenized for 3 minutes at speed 10 (NEXTADVANCE, BULLET BLENDER® 24) prior to Western blotting.

[10] = system: H3K27 methylation in NCI-H522 tumor xenograft tissue; assay: as above; type: in vivo, mouse; details: strongest at 450 mg/kg BID; day 7, three hours after dosing
Experimental: as §6

NCI-H522 cells = assay: Edu incorporation (DNA synthesis); type: cell-based, human; details: 8 weeks of treatment, relative to resistant NCI-H1568
[11] = SMARCA4-mutant cells resistant to EPZ-6438 (H1299, A549)
[12] = SMARCA4-mutant cells sensitive to EPZ-6438 (SNU-484, TOV112D), dose-dependent
[13] = OVTOKO and OVISE ARID1A-mutant cell lines
[14] = COV434, SNU-484 and G401 cells expressing shBRM

Compound: CC[C@H](C)n1cc(C)c2c(C(=O)NCc3c(C)cc(C)[nH]c3=O)cc(-c3ccc(N4CCNCC4)nc3)cc21 [GSK-126]
colony formation [1, 11]: no effect | colony formation [1, 12]: inhibited colony formation

Compound: CCS(=O)(=O)N1CCC([C@@H](C)n2c(C)c(C(=O)NCc3c(OC)cc(C)[nH]c3=O)c3ccccc32)CC1 [CPI-169]
colony formation [1, 11]: no effect | colony formation [1, 12]: inhibited colony formation | differential sensitivity of colony formation ([2]; ARID1A-mutant versus ARID1A-WT ovarian cell lines): phenocopied | acini formation (ARID1A-mutant cell lines; A2780 cells (positive control)): inhibition of both clonogenic growth and acini formation | acini formation (ARID1A-mutant cell lines; [13]): lack of activity

Compound: Nc1ncn([C@H]2C[C@H](O)[C@@H](CO)O2)c(=O)n1 [5-aza-2′-deoxycytidine]
SMARCA2 mRNA levels (SMARCA2; SMARCA4-mutant cells with repressed SMARCA2): did not impact

kinetics of senescence induction (homogenous β-galactosidase expression) ([8]; NCI-HS22 cells): not observed until a few weeks
Compound: CCN(c1cc(-c2ccc(CN3CCOCC3)cc2)cc(C(=O)NCc2c(C)cc(C)[nH]c2=O)c1C)C1CCOCC1 [EPZ-6438]
colony formation in cells expressing SMARCA2 shRNA (shBRM) [1, 14]: did not affect the ability of EPZ-6438 to inhibit colony formation | dose-dependent inhibition of colony formation in cells expressing shBRM ([1]; TOV-112D cells expressing shBRM): prevented the dose-dependent inhibition of colony formation | inhibition in colony formation ([1]; panel of 11 SMARCA4-mutant cancer cell lines, increasing doses): dose-dependent inhibition in colony formation was observed in a subset | apoptosis (caspase 3/7) [3]: subpopulations of apoptotic cells | dose-dependent induction of apoptosis in cells expressing shBRM (TOV-112D cells; TOV-112D cells expressing shBRM, 6 days): prevented | activation of caspase 3/7 in cells expressing shCTSB (TOV-112D cells; TOV-112D cells expressing shRNAs targeting CTSB): significantly suppressed | apoptotic response (caspase 3/7) (TOV-112D cells; TOV-112D cells, seven days of treatment): strong apoptotic response | tumor growth inhibition (TGI) (NCI-H522 xenografts; 450 mg/kg BID): 72% | inhibition of tumor growth (NCI-H522 xenografts; twice daily (BID), 30, 100, 450 mg/kg, 23 days): dose-dependent inhibition of tumor growth | tumor growth inhibition (TOV-21G tumor xenografts): tumor growth inhibition | inhibition in colony formation [4]: inhibition in colony formation | activity on colony formation (SWI/SNF wild-type models): No activity; also recorded: No effect | inhibition in colony formation ([2]; panel of ARID1A-mutant cancer cell lines): inhibition in colony formation was observed in a subset | acini formation (ARID1A-mutant cell lines; A2780 cells (positive control)): inhibition of both clonogenic growth and acini formation | acini formation (ARID1A-mutant cell lines; [13]): lack of activity | inhibition of H3K27 methylation in cells expressing shBRM [5, 14]: no effect on the ability of EPZ-6438 to inhibit H3K27 methylation | inhibition of mono-, di-, and tri-methylated H3K27 ([5]; EPZ-6438-sensitive and EPZ-6438-resistant cell lines, dose-dependent, 6-day treatment): inhibited mono-, di-, and tri-methylated H3K27 to a similar extent | CTSB transcript and protein (cathepsin B (CTSB)): strongly upregulated | induction of SMARCA2 transcript and protein (SMARCA2; EPZ-6438-resistant SMARCA4-mutant cell lines, 5 μM): but not EPZ-6438-resistant | induction of SMARCA2 (SMARCA2; EPZ-6438-sensitive ARID1A-mutant A2780 cells, 5 μM, 6 days): induction of SMARCA2 | induction of SMARCA2 transcript and protein (SMARCA2; EPZ-6438-sensitive SMARCA4-mutant cell lines, 5 μM): strong induction | SMARCA2 levels (SMARCA2; SMARCB1-mutant MRT line G401, 6 days, EPZ-6438 5 μM, 5-Aza 1 μM): induction in SMARCA2 levels | morphologic changes (cell flattening and enlargement) [6]: pronounced morphologic changes | association of H3K27me3 with the SMARCA2 gene promoter [7]: significant decrease | kinetics of senescence induction (homogenous β-galactosidase expression) ([8]; COV434 model): homogenous expression of β-galactosidase by seven days | senescence-associated β-galactosidase expression ([8]; some SMARCA4-mutant EPZ-6438-sensitive models, most notable in COV434 and NCI-HS22): Increases in senescence-associated β-galactosidase expression | H3K27me3 in tumor tissue [9]: target inhibition | H3K27me3 and H3K27me2 in tumor tissue [10]: reduction of H3K27me3 and H3K27me2 | DNA synthesis / proliferative state by Edu incorporation (NCI-H522 cells): non-proliferative state; also recorded: inhibition of DNA synthesis
